Reference: US20130324543A1, “REVERSAL OF HIGH BREAST CANCER RISK IN MAMMALS EXPOSED TO ESTROGENIC CHEMICALS IN UTERO BY ADULT EXPOSURE TO HDAC AND DNMT INHIBITORS” (Georgetown University, priority 2012, published 2013)

Legend:
[1] = tested on: mammary tumors; test: MPA/DMBA-induced mammary tumorigenesis in mice exposed in utero to EE2 or GEN, with or without adult HDAC+DNMT inhibitors; settings: mouse, in vivo
Procedure: Time pregnant C57BL/6 female mice were obtained from Harlan (Harlan-Teclad, USA) on gestation day 6, and were randomly assigned into three groups on the following day (gestation day 7). The basic diet formulation in the study was a semi-purified AIN93G (the American Institute of Nutrition) modified to replace soy oil for corn oil; all the diets of the three treatment groups were also purchased from Harlan. The diets were isocaloric, as ethinyl estradiol (EE2) or genistein (GEN) were added in the diet at the expense of comstarch. Additions to the basic diet were as follows: 1) EE2 0.1 ppm, and 2) GEN 500 ppm. EE2 was purchased from Sigma Chemicals (St. Louis, Mo., USA), and GEN was a gift from Dr. William Helferich (University of Illinois, Urbana, Ill., USA).
The pregnant dams were fed these diets until the day of the delivery of their pups (Post Natal Day 0, PND 0). Starting on PND 0, all mice were fed the control diet until the end of the study. Female mice born from the dams fed with the different above mentioned diets were used in the subsequent studies. For study outline, see FIG. 12. Animals were housed in a temperature- and humidity-controlled room under a 12-hour light-dark cycle. All animal procedures were approved by the Georgetown University Animal Care and Use Committee, and the experiments were performed following the National Institutes of Health guidelines for the proper and humane use of animals in biomedical research.
Mammary tumors were induced by administration of a subcutaneous injection of Medroxyprogesterone Acetate (MPA) to mice at 6 weeks of age, followed by administration of 1 mg 7,12-dimethylbenz(a)anthracene (DMBA) (Sigma, St. Louis, Mo.) weekly for four weeks (weeks 7, 8, 9, 10) (23). The carcinogen was dissolved in corn oil and administered by oral gavage in a volume of ca. 0.1 ml.
One week after the last dose of DMBA was administered, some of the mice were started on hydralazine (5 mg/kg/day) and valproic acid treatments (1.16 g/kg/day) treatments.
The two compounds were given in a drinking water, which was prepared fresh twice a week. The doses were chosen based on the literature (24-26). The number of animals in each group is as follows: Control n=18, Control given HDAC+DNMT inhibitors n=9, EE2 n=9, EE2 given HDAC+DNMT inhibitors n=6, GEN n=14, and GEN given HDAC+DNMT inhibitors n=8.
Mice were examined for mammary tumors by palpation once per week. Tumor growth was monitored for 16 weeks after the last dose of DMBA administration. During the follow-up, animals in which tumor burden approximated 10% of total body weight were euthanized, as required by the ethical guidelines of our institution. All surviving animals were sacrificed at that point for sample collection. The end-points for tumor data analysis were (i) latency to tumor appearance, (ii) the number of animals with tumors (tumor incidence), and (iii) the cumulative tumor area (tumor burden). The latter was achieved by adding the total tumor area per group each week and dividing it with the number of mice in the group.
Mammary tumor latency was compared with the final tumor burden in utero EE2 and GEN exposed mice to control mice, and in utero EE2 and GEN exposed mice to control mice exposed to HDAC+DNMT inhibitors separately; analysis was done using one-way ANOVA. Cumulative tumor burden during 16 weeks of tumor monitoring in the three groups, separately in those mice not given HDAC+DNMT inhibitors and those treated with the epigenetic drugs, was analysed using repeated measures one-way ANOVA. Log rank analysis was performed to compare mammary tumor incidence in the control and in utero EE2 and GEN exposed mice, again separately in those mice not given HDAC+DNMT inhibitors and those treated with the epigenetic drugs. Data for changes in DNMT1 expression among the groups in the mammary glands and tumors were assessed using two-way ANOVA, followed by Fisher LSD test

[2] = tested on: mammary gland; test: Mammary gland morphology of in utero exposed mice (whole mounts); assay type: in vivo, C57BL/6 mice; settings: female mice, PND 27
Procedure: One of the two #4 abdominal mammary glands was dissected and fixed in Carnoy's fixative and processed into whole mounts as previously described (8). The other #4 abdominal gland was snap frozen in liquid nitrogen and stored in −80° C. for future analysis. One of the two thoracic #2-3 mammary glands was fixed in neutral buffered 10% formalin, embedded in paraffin and processed for histology using routine methods, and the other was snap frozen in liquid nitrogen, also stored in −80° C. for future analysis. Uterus was dissected, and one horn with the ovary and vagina attached was fixed in 10% formalin, embedded in paraffin and processed for histology, and the other horn and one ovary were frozen in liquid nitrogen and stored in −80° C.
To assess possible changes in mammary gland morphology, whole amounts of the 4th abdominal glands obtained on PND 27 were processed as previously described (4, 72). The total number of terminal end buds (TEBs) was counted. Identification of TEBs was based on the guidelines established by Russo and Russo (64). The total area (in pixels) of epithelium of the peripubertal (PND 27) mammary glands was analyzed by using ImageJ software (available through NIH web site) on digitized pictures of mammary whole mounts with ducts manually intensified black against white background (shown as an insert in FIG. 16). Ductal elongation (mammary epithelial outgrowth) on PND 50 was measured as the growth in millimeters from the end of the lymph node to the end of the epithelial tree. All the analyses were done blindly using an Olympus dissecting microscope.

[3] = tested on: CYP1B1; test: CYP1B1 expression (qRT-PCR) in mammary glands of F1-F3 rat offspring; assay type: in vivo, Sprague Dawley rats
Procedure: Mammary gland tissue obtained from 50-day-old F1-F3 generation offspring (n=5-6 per group per generation) were used. 1 μg of total RNA per sample was used as a template for random primed cDNA synthesis. The cDNA samples were used as templates for qRT-PCR analysis with specific primers for the target gene, rat CYP1B1 using QuantiTect SYBR green PCR kit (Qiagen Inc., Valencia, Calif.) and an ABI Prism 7900 Sequence Detection System. Each sample was run in triplicate. Absolute gene expression levels were determined using Applied Biosystems' SDS2.3 software and the standard curve method. Concentration of each sample was normalized to the reference gene 18S rRNA.

[4] = Body weight and growth of in utero exposed pups; assay type: in vivo, C57BL/6 mice; settings: mouse, in vivo
From the text: Additions to the basic diet were as follows: 1) cornstarch [control]; 2) EE2 0.1 ppm; 3) BPA 0.155 ppm; 4) GEN 500 ppm.

C#C[C@]1(O)CC[C@H]2[C@@H]3CCc4cc(O)ccc4[C@H]3CC[C@@]21C [EE2, ethinyl estradiol]
Final tumor burden per mouse [1]: significantly higher | Mammary tumor incidence [1]: significantly higher | mammary tumorigenesis [1]: increased mammary tumorigenesis | total epithelial area of the glands [2]: significantly increased | CYP1B1 expression in normal mammary glands ([3]; F1-F3 generation offspring): up-regulated | expression levels of CYP1B1 ([3]; F1 and F2 generations, vs control or HF offspring): significantly higher | CYP1B1 expression levels ([3]; F3 generation, vs controls): higher than in the controls | birthweight, or postnatal weight development [4]: did not alter
